Test results from patent US9266857B2, “Bicyclic AZA compounds as muscarinic M1 receptor agonists” (Heptares Therapeutics Limited, priority 2012, dated 2016).

Assays:
[1] = tested on: fEPSPs in the CA1 region of rat hippocampal slices; assay: CA1 cell firing, fEPSPs in hippocampal slices; type: cell-based; conditions: CA1 fEPSP amplitude, 6 slices averaged
Procedure: Rat hippocampal slices of 400 μm thickness were cut in chilled (<4° C.) artificial cerebrospinal fluid (aCSF, composition in mM: NaCl 127, KCl 1.6, KH2PO4 1.24, MgSO4 1.3, CaCl2 2.4, NaHCO3 26 and D-glucose 10) using vibratome. Slices were maintained in oxygenated (95% O2/5% CO2) aCSF at room temperature for at least 1 hr prior to electrophysiological recording, after which they were transferred to an interface chamber and constantly perfused with warmed (30° C.) oxygenated aCSF at a flow rate of 1.5-3 ml.min-1. Schaffer collaterals were then stimulated (1-20 V, 0.1 ms pulse width, 0.033 Hz) with a concentric bipolar electrode to evoke field excitatory post synaptic potentials (fEPSPs) recorded from the stratum radiatum of the CA1 region. Experiments were performed to examine the effect of compound compared to 1 μM carbachol (CCh), on the amplitude of fEPSPs in the CA1 region of rat hippocampal slices. 1 μM CCh was initially applied until steady-state, followed by wash, before performing a five point cumulative concentration-response to compound. Each compound was tested on 6 slices and results averaged. Drug preparation; compound was dissolved in 100% DMSO at a stock concentration of 30 mM, and diluted according to requirements, carbamoylcholine chloride (CCh) was purchased from Sigma (Cat#C4382) and dissolved at a stock concentration of 1 mM in ddH2O.

[2] = tested on: scopolamine-induced amnesia; assay: Passive avoidance, scopolamine-induced amnesia; type: in vivo
Procedure: Studies were carried out as described previously by Foley et al., (2004) Neuropsychopharmacology. In the passive avoidance task scopolamine administration (1 mg/kg, i.p.) at 6 hours following training rendered animals amnesic of the paradigm. A dose range of 3, 10, and 30 mg/kg (po) free base, administered 90 minutes prior to the training period via oral gavage, was examined.

[3] = biological target: T1, human muscarinic M3 receptor (Homo sapiens, UniProt P20309); assay: Alphascreen Surefire phospho-ERK1/2 functional assay, M3; type: cell-based
T1 construct: expressed in transfected cells
T1 sequence (P20309 whole entry): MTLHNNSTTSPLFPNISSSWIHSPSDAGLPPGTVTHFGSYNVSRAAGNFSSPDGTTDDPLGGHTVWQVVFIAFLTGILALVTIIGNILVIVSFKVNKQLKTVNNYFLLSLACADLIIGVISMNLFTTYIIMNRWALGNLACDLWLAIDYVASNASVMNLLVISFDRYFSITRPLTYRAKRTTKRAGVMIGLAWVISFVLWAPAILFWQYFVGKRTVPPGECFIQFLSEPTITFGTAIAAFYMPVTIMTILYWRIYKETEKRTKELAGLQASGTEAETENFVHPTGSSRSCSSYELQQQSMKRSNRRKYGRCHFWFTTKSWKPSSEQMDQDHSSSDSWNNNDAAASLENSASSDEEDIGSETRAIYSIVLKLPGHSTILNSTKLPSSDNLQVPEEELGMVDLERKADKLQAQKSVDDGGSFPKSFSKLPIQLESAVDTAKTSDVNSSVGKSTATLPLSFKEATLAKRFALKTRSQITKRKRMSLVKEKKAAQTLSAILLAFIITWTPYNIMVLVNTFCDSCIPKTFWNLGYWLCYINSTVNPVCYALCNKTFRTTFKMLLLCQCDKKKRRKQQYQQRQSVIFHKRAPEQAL
Procedure: (§1) ERK1/2 phosphorylation is a downstream consequence of both Gq/11 and Gi/o protein coupled receptor activation, making it highly suitable for the assessment of M1, M3 (Gq/11 coupled) and M2, M4 receptors (Gi/o coupled), rather than using different assay formats for different receptor subtypes. CHO cells stably expressing the human muscarinic M1, M2, M3 or M4 receptor were plated (25K/well) onto 96-well tissue culture plates in MEM-alpha+10% dialysed FBS. Once adhered, cells were serum-starved overnight. Agonist stimulation was performed by the addition of 5 μL agonist to the cells for 5 min (37° C.). Media was removed and 50 μL of lysis buffer added. After 15 min, a 4 μL sample was transferred to 384-well plate and 7 μL of detection mixture added. Plates were incubated for 2 h with gentle agitation in the dark and then read on a PHERAstar plate reader.
(§2) pEC50 and Emax figures were calculated from the resulting data for each receptor subtype.

[4] = biological target: T2, human muscarinic M4 receptor (Homo sapiens, UniProt P08173); assay: Alphascreen Surefire phospho-ERK1/2 functional assay, M4; type: cell-based
T2 construct: expressed in transfected cells
T2 sequence (P08173 1-479): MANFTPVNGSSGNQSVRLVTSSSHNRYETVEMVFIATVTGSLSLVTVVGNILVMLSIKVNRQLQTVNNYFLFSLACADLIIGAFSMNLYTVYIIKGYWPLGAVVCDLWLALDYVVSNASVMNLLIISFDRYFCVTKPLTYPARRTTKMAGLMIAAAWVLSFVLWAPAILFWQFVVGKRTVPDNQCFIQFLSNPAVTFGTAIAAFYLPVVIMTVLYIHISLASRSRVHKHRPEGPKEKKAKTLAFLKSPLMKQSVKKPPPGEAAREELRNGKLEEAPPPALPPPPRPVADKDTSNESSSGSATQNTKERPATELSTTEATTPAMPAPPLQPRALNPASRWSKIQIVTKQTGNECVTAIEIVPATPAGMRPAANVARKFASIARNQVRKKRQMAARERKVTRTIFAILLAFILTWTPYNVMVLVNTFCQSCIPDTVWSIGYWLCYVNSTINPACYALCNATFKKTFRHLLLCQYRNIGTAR
Procedure: as §1, §2

[5] = biological target: T3, human muscarinic M1 receptor (Homo sapiens, UniProt P11229); assay: Alphascreen Surefire phospho-ERK1/2 functional assay, M1; type: cell-based
T3 construct: expressed in transfected cells
T3 sequence (P11229 1-460): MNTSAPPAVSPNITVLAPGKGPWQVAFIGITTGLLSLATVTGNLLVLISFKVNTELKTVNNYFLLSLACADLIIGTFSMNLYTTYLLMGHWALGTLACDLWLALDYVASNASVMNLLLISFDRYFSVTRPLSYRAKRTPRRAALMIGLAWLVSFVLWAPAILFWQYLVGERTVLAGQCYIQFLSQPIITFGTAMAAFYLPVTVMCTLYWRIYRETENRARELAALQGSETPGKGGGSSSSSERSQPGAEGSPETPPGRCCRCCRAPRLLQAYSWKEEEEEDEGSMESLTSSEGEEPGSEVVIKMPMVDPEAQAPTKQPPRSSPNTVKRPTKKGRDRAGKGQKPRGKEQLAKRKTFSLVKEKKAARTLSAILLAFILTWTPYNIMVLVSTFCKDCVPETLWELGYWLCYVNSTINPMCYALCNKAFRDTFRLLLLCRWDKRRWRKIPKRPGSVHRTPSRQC
Procedure: as §1, §2

[6] = biological target: T4, human muscarinic M2 receptor (Homo sapiens, UniProt P08172); assay: Alphascreen Surefire phospho-ERK1/2 functional assay, M2; type: cell-based
T4 construct: expressed in transfected cells
T4 sequence (P08172 1-466): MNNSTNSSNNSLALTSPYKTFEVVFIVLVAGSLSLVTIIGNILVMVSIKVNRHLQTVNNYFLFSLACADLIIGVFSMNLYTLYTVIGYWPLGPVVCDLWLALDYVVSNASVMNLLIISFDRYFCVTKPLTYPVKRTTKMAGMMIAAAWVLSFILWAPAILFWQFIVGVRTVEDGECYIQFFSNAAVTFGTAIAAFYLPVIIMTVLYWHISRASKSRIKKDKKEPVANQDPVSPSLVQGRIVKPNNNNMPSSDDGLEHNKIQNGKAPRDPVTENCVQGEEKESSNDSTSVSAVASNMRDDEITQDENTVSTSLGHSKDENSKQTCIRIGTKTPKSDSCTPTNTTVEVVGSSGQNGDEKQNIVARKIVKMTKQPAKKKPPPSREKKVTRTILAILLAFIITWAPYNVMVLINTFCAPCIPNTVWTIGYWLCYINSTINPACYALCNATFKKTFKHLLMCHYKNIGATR
Procedure: as §1, §2

CCOC(=O)N1CCC2(CC(N3CCC(C(=O)NC4(C)CCC4)CC3)C2)C1 (single isomer, unassigned) [Example 9 - Isomer 2, ethyl 2-{4-[(1-methylcyclobutyl)carbamoyl]piperidin-1-yl}-6-azaspiro[3.4]octane-6-carboxylate]
EC50 [1]: 5700 nM | reversal of scopolamine-induced amnesia of the passive avoidance paradigm ([2]; 3, 10 and 30 mg/kg po): reverse scopolamine-induced amnesia of the paradigm in a dose-dependent manner | ED50 ([2]; po, 90 minutes prior to training, scopolamine 1 mg/kg i.p., read-out: approximate ED50, reversal of scopolamine-induced amnesia): ~10 mg/kg | EC50 ([3]; CHO cells stably expressing human M3, phospho-ERK1/2, read-out: pEC50 M3 (converted)): > 20000 nM | Emax ([3]; CHO, read-out: % Emax cf. ACh, M3): 9% | EC50 ([4]; CHO cells stably expressing human M4, phospho-ERK1/2, read-out: pEC50 M4 (converted)): 182 nM | Emax ([4]; CHO, read-out: % Emax cf. ACh, M4, CHO cells stably expressing human M4, relative to ACh): 66% | EC50 ([5]; CHO cells stably expressing human M1, phospho-ERK1/2, read-out: pEC50 M1 (converted)): 36.3 nM | Emax ([5]; CHO, read-out: % Emax cf. ACh, M1, CHO cells stably expressing human M1, relative to ACh): 100% | EC50 ([6]; CHO cells stably expressing human M2, phospho-ERK1/2, read-out: pEC50 M2 (converted)): > 20000 nM | Emax ([6]; CHO, read-out: % Emax cf. ACh, M2): 15%
